In patent publication US8076486B2, “Heteroaryl-substituted arylaminopyridine derivatives as MEK inhibitors” (Merck Serono S.A., priority 2006, dated 2011):

Legend:
[1] = target: human MEK1 (Homo sapiens, UniProt Q02750, S218E/S222E); assay: MEK-1 Enzyme Assay (LANCE-HTRF); format: biochemical; conditions: MEK-1 EE, ERK-2K52A substrate, 9 uM ATP, 1.5 hrs
Protocol: Assay 1: MEK-1 Enzyme Assay (LANCE-HTRF)
Inhibition of human MEK1 kinase activity was monitored with a homogenous, fluorescence-based assay. The assay uses time resolved fluorescence resonance energy transfer to probe for phosphorylation of ERK1 by MEK1. The detailed procedure is described in the following:
Constititutively active MEK-1 EE (150 ng/well) and ERK-2K52A (110 ng/well) were incubated in black, 384 well Optiplates (Perkin Elmer) for 1.5 hrs at room temperature, in the presence of increasing concentrations of inhibitors. The total reaction volume was 50 ul. The inhibitors were serial diluted in kinase buffer (9 uM ATP, 50 mM Tris-Hcl pH 8.0, 10 mM MgCl2, 1 mM DTT and 100 uM Na3VO4), to a final concentration of 1% DMSO. At the end of the incubation, the enzyme reaction was quenched by adding 50 ul of assay buffer containing 50 mM Tris-Hcl, 50 mM EDTA, 0.1% BSA and a mixture of 1.25 ug/mL europium labeled anti-phosphotyrosine mAb (Perkin Elmer) and 5 ug/mL of allophycocyanin labeled anti-GST antibody (CIS-US). Plates were agitated on a plate shaker for 30 minutes and the phosphorylation of the ERK-2K52A substrate was measured by homogeneous time resolved fluorescence (HTRF) at 340 nm excitation and […] emission filters on the VICTOR V fluorescence plate reader. Phosphorylation is expressed as a ratio of 665 nM signal×10,000/615 nM signal. To assess the inhibitory potential of the compounds, IC50-values were determined.

[2] = tested on: Murine colon C26 cells; assay: Tumor Cell Proliferation Assay (ATP Lite), C26; format: cell-based; conditions: Mus musculus, 96 h, 4 days, ATPlite
Protocol: (§1) Assay 2: Tumor Cell Proliferation Assays (ATP Lite)
(§2) Murine colon C26 (1500 cells/well), human melanoma A375 (2000 cells/well), or human pancreatic MiaPaCa-2 cells (2000 cells/well) were plated in white, 96 well plates (Corning) in growth media (DMEM with 10% fetal bovine serum, 2 mM glutamine for C26 and MiaPaCa-2, and RPMI with 10% fetal bovine serum, 2 mM glutamine for A375) and cultured overnight at 37° C. in a humidified, 5% CO2 incubator. Inhibitors were serially diluted in 100% DMSO and subsequently added to the cells, in growth media, to reach a final concentration of 0.25% DMSO. The cells were incubated for 4 days in the presence of the test compounds and the proliferation was quantitated using the ATPlite cell proliferation kit (Packard).

[3] = tested on: human melanoma A375 cells; assay: Tumor Cell Proliferation Assay (ATP Lite), A375; format: cell-based; conditions: A-375, 96 h, 4 days, ATPlite
Protocol: as §1, §2

[4] = tested on: human pancreatic MiaPaCa-2 cells; assay: Tumor Cell Proliferation Assay (ATP Lite), MiaPaCa-2; format: cell-based; conditions: MIA PaCa-2, 96 h, 4 days, ATPlite, read-out: MiaPaCa2 cell proliferation IC50
Protocol: as §1, §2

Sequence of human MEK1 (Q02750 whole entry S218E/S222E): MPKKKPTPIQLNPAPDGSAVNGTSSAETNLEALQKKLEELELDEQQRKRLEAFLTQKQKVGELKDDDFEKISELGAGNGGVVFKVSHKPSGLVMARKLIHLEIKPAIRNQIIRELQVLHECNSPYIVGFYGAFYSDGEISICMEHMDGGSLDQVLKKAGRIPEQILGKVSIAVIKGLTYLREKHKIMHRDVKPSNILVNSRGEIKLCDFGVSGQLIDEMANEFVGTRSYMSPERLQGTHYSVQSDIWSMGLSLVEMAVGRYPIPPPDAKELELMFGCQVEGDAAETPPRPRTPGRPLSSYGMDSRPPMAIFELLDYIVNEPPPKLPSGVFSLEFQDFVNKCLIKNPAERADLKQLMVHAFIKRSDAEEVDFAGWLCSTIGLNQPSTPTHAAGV

| SMILES | IC50 [1] [µM] | IC50 [2] [µM] | IC50 [3] [µM] | IC50 [4] [µM] |
| --- | --- | --- | --- | --- |
| Fc1cc(I)ccc1Nc1cnccc1-c1c[nH]nn1 [Example 64, N-(2-fluoro-4-iodophenyl)-4-(1H-1,2,3-triazol-4-yl)pyridin-3-amine] | ≤ 3 | ≤ 3 | ≤ 3 | ≤ 3 |
| Nc1nnc(-c2c(Nc3ccc(I)cc3F)cncc2-c2ccccc2Cl)o1 [Example 57, [4-(5-Amino-[1,3,4]oxadiazol-2-yl)-5-(2-chloro-phenyl)-pyridin-3-yl]-(2-fluoro-4-iodo-phenyl)-amine] | ≤ 3 | ≤ 3 | ≤ 3 | ≤ 3 |
| CCOc1nnc(-c2ccncc2Nc2ccc(I)cc2F)[nH]1 [Example 30, [4-(5-Ethoxy-4H-[1,2,4]triazol-3-yl)-pyridin-3-yl]-(2-fluoro-4-iodo-phenyl)-amine] | ≤ 3 | – | – | – |
| Cc1cc(I)ccc1Nc1cnccc1-c1nnc(N)[nH]1 [Example 33, [4-(5-Amino-4H-[1,2,4]triazol-3-yl)-pyridin-3-yl]-(4-iodo-2-methyl-phenyl)-amine] | ≤ 3 | ≤ 3 | ≤ 3 | ≤ 3 |
| Fc1cc(I)ccc1Nc1cnccc1-c1nnc(N2CCOCC2)o1 [Example 6, (2-Fluoro-4-iodo-phenyl)-[4-(5-morpholin-4-yl-[1,3,4]oxadiazol-2-yl)-pyridin-3-yl]-amine] | ≤ 3 | ≤ 3 | ≤ 3 | ≤ 3 |
| C#Cc1cc(-c2nnc(N)o2)c(Nc2ccc(I)cc2F)cn1 [Example 28, [4-(5-Amino-[1,3,4]oxadiazol-2-yl)-6-ethynyl-pyridin-3-yl]-(2-fluoro-4-iodo-phenyl)-amine] | ≤ 3 | – | – | – |
| Nc1nnc(-c2ccncc2Nc2ccc(I)cc2Cl)o1 [Example 24, [4-(5-Amino-[1,3,4]oxadiazol-2-yl)-pyridin-3-yl]-(2-chloro-4-iodo-phenyl)-amine] | ≤ 3 | ≤ 3 | ≤ 3 | ≤ 3 |
| CC(Nc1nnc(-c2ccncc2Nc2ccc(I)cc2F)o1)C(=O)O (stereo not shown) [Example 53, 2-{5-[3-(2-Fluoro-4-iodo-phenylamino)-pyridin-4-yl]-[1,3,4]oxadiazol-2-ylamino}-propionic acid] | ≤ 3 | ≤ 3 | ≤ 3 | 3 to 25 |
| CCOC(=O)c1noc(-c2ccncc2Nc2ccc(I)cc2F)n1 [Example 36, 5-[3-(2-Fluoro-4-iodo-phenylamino)-pyridin-4-yl]-[1,2,4]oxadiazole-3-carboxylic acid ethyl ester] | ≤ 3 | – | – | – |
| OCC(O)CNc1nnc(-c2ccncc2Nc2ccc(I)cc2F)o1 (stereo not shown) [Example 11, 3-{5-[3-(2-Fluoro-4-iodo-phenylamino)-pyridin-4-yl]-[1,3,4]oxadiazol-2-ylamino}-propane-1,2-diol] | ≤ 3 | ≤ 3 | ≤ 3 | ≤ 3 |
| Fc1cc(I)ccc1Nc1cnccc1-c1ncno1 [Example 37, (2-Fluoro-4-iodo-phenyl)-(4-[1,2,4]oxadiazol-5-yl-pyridin-3-yl)-amine] | ≤ 3 | ≤ 3 | ≤ 3 | ≤ 3 |
| Fc1cc(I)ccc1Nc1cnccc1-c1nnc(NCCN2CCOCC2)o1 [Example 20, (2-Fluoro-4-iodo-phenyl)-{4-[5-(2-morpholin-4-yl-ethylamino)-[1,3,4]oxadiazol-2-yl]-pyridin-3-yl}-amine] | ≤ 3 | ≤ 3 | ≤ 3 | ≤ 3 |
| CN(C)c1nnc(-c2ccncc2Nc2ccc(I)cc2F)o1 [Example 42, [4-(5-Dimethylamino-[1,3,4]oxadiazol-2-yl)-pyridin-3-yl]-(2-fluoro-4-iodo-phenyl)-amine] | ≤ 3 | ≤ 3 | ≤ 3 | ≤ 3 |
| CCOC(=O)c1nnc(-c2ccncc2Nc2ccc(I)cc2F)[nH]1 [Example 31, 5-[3-(2-Fluoro-4-iodo-phenylamino)-pyridin-4-yl]-4H-[1,2,4]triazole-3-carboxylic acid ethyl ester] | ≤ 3 | 3 to 25 | ≤ 3 | 3 to 25 |
| Cc1nnc(-c2ccncc2Nc2ccc(I)cc2F)o1 [Example 13, (2-Fluoro-4-iodo-phenyl)-[4-(5-methyl-[1,3,4]oxadiazol-2-yl)-pyridin-3-yl]-amine] | ≤ 3 | ≤ 3 | ≤ 3 | ≤ 3 |
| Nc1nnc(-c2ccncc2Nc2ccc(I)cc2F)s1 [Example 54, [4-(5-Amino-[1,3,4]thiadiazol-2-yl)-pyridin-3-yl]-(2-fluoro-4-iodo-phenyl)-amine] | ≤ 3 | ≤ 3 | ≤ 3 | ≤ 3 |
| CN(C)CCNc1nnc(-c2ccncc2Nc2ccc(I)cc2F)o1 [Example 22, N-{5-[3-(2-Fluoro-4-iodo-phenylamino)-pyridin-4-yl]-[1,3,4]oxadiazol-2-yl}-N′,N′-dimethyl-ethane-1,2-diamine] | ≤ 3 | ≤ 3 | ≤ 3 | ≤ 3 |
| Nc1nnc(-c2c(F)cncc2Nc2ccc(I)cc2F)o1 [Example 48, [4-(5-Amino-[1,3,4]oxadiazol-2-yl)-5-fluoro-pyridin-3-yl]-(2-fluoro-4-iodo-phenyl)-amine] | ≤ 3 | ≤ 3 | ≤ 3 | ≤ 3 |
| CCOC(=O)C(=O)Nc1nnc(-c2ccncc2Nc2ccc(I)cc2F)o1 [Example 15, N-{5-[3-(2-Fluoro-4-iodo-phenylamino)-pyridin-4-yl]-[1,3,4]oxadiazol-2-yl}-oxalamic acid ethyl ester] | ≤ 3 | ≤ 3 | ≤ 3 | ≤ 3 |
| Fc1cc(I)ccc1Nc1cnccc1-c1ccn[nH]1 [Example 61, (2-Fluoro-4-iodo-phenyl)-[4-(2H-pyrazol-3-yl)-pyridin-3-yl]-amine] | ≤ 3 | 3 to 25 | ≤ 3 | ≤ 3 |
| Nc1nnc(-c2ccncc2Nc2ccc(I)cc2F)[nH]1 [Example 41, [4-(5-Amino-4H-[1,2,4]triazol-3-yl)-pyridin-3-yl]-(2-fluoro-4-iodo-phenyl)-amine] | ≤ 3 | ≤ 3 | ≤ 3 | ≤ 3 |
| Nc1nnc(-c2c(Nc3ccc(I)cc3F)cncc2-c2ccccc2F)o1 [Example 58, [4-(5-Amino-[1,3,4]oxadiazol-2-yl)-5-(2-fluoro-phenyl)-pyridin-3-yl]-(2-fluoro-4-iodo-phenyl)-amine] | ≤ 3 | ≤ 3 | ≤ 3 | ≤ 3 |
| Fc1cc(I)ccc1Nc1cnccc1-c1nnn[nH]1 [Example 62, N-(2-fluoro-4-iodophenyl)-4-(1H-tetrazol-5-yl)pyridin-3-amine] | ≤ 3 | > 25 | > 25 | > 25 |
| CCOC(=O)c1nnc(-c2ccncc2Nc2ccc(I)cc2F)o1 [Example 39, 5-[3-(2-Fluoro-4-iodo-phenylamino)-pyridin-4-yl]-[1,3,4]oxadiazole-2-carboxylic acid ethyl ester] | ≤ 3 | > 25 | ≤ 3 | > 25 |
| Cc1noc(C)c1-c1ccncc1Nc1ccc(I)cc1F [Example 66] | ≤ 3 | – | – | – |
| Nc1nnc(-c2ccncc2Nc2ccc(Br)cc2F)o1 [Example 34, [4-(5-Amino-[1,3,4]oxadiazol-2-yl)-pyridin-3-yl]-(4-bromo-2-fluoro-phenyl)-amine] | ≤ 3 | ≤ 3 | ≤ 3 | ≤ 3 |
| Cn1c(-c2ccncc2Nc2ccc(I)cc2F)n[nH]c1=S [Example 8, 5-[3-(2-Fluoro-4-iodo-phenylamino)-pyridin-4-yl]-4-methyl-2,4-dihydro-[1,2,4]triazole-3-thione] | ≤ 3 | ≤ 3 | ≤ 3 | ≤ 3 |
| Fc1cc(I)ccc1Nc1cnccc1C1NNC(=S)N1CCN1CCOCC1 (stereo not shown) [Example 9, 5-[3-(2-Fluoro-4-iodo-phenylamino)-pyridin-4-yl]-4-(2-morpholin-4-yl-ethyl)-[1,2,4]triazolidine-3-thione] | 3 to 25 | ≤ 3 | ≤ 3 | ≤ 3 |
